From patent EP4631938A1, “NITROGEN-CONTAINING HETEROCYCLE WITH SEROTONIN RECEPTOR-BINDING ACTIVITY AND CARBOCYCLIC DERIVATIVE” (Shionogi & Co., Ltd, priority 2022, dated 2024)

Legend:
[1] = molecular target: T1, human recombinant 5-HT2A receptor (Homo sapiens, UniProt P28223); assay: Test Example 1: 5-HT2A receptor binding inhibition test ([3H]-Ketanserin; non-specific ligand Serotonin HCl)
T1 construct: expressed in transfected cells; host or cells: Jump-In HEK cells (membrane preparation)
Description: The Kd value is calculated when the lot of the cell membrane is changed. 1 mmol/L non-specific binding calculating compound dissolved in DMSO or DMSO is previously dispensed to the microplate by 0.5 µL, and the cell membrane is diluted with an Assay buffer. The radioactive ligand solution is diluted step by step, and counts are checked with a liquid scintillator. The Assay buffer containing diluted cell membranes is dispensed by 50 µL/well into the microplate. The radioactive ligand solution is then dispensed by 50 µL/well into the microplate and the plate is sealed. The microplate is allowed to stand for 1.5 hours at room temperature (25°C). During this time, 50 mmol/L Tris-HCl (pH 7.4) is dispensed by 50 µL/well on the GF/B UniFilter plate and allowed to stand at 4°C for 1 hour or longer. Thereafter, filtration is performed with a Cell Harvester (PerkinElmer). The radioactive ligand solution is dispensed by 10 µL/well into empty wells of the GF/B UniFilter plate. After drying the GF/B UniFilter plate at room temperature, MicroScinti20 is dispensed by 50 µL/well into the GF/B UniFilter plate, and the plate is sealed. GF/B UniFilter plate is allowed to stand at room temperature overnight. The radioactivity of [^3H]-Ketanserin bound to the 5-HT2A receptor is measured using Microbeta2 (PerkinElmer) at a measurement time of 1 min/well. The Saturation curve is drawn from the measured value, and the Kd value is calculated from the slope of the Scatchard Plot.
A compound solution dissolved in DMSO is dispensed to a microplate by 0.5 µL, and a cell membrane and a hot ligand are each diluted with an Assay buffer. The Assay buffer containing diluted cell membrane is then dispensed by 50 µL/well into the microplate. The radioactive ligand solution is then dispensed by 50 µL/well into the microplate and the plate is sealed. Thereafter, the microplate is allowed to stand at room temperature (25°C) for 1.5 hours. During this time, 50 mmol/L Tris-HCl (pH 7.4) is dispensed by 50 µL/well into the GF/B UniFilter plate and allowed to stand at 4°C for 1 hour or longer. Thereafter, filtration is performed with a Cell Harvester (PerkinElmer). After drying the GF/B UniFilter plate at room temperature, MicroScinti20 is dispensed by 50 µL/well into the GF/B UniFilter plate, and the plate is sealed. GF/B UniFilter plate is allowed to stand at room temperature overnight. The radioactivity of [^3H]-Ketanserin bound to the 5-HT2A receptor is measured using Microbeta2 (PerkinElmer) at a measurement time of 1 min/well. Non-specific binding is calculated from the radioactivity of [^3H]-Ketanserin in the presence of 500 µmol/L Serotonin HCl of unlabeled ligand, and total binding is calculated from the radioactivity of [^3H]-Ketanserin in the absence of the compound of the present invention (Vehicle). Finally, the Ki value is calculated from the dose-response curve.
(The binding activity of the compound according to the present invention is calculated from the following binding inhibition rate (%).) Inhibition rate (%) = [1−(c−a)/(b−a)] × 100 [formula] • a; average cpm of non-specific binding • b; average cpm of total binding • c; cpm in the presence of the test compound
The compounds of the present invention were tested essentially as described above.

[2] = molecular target: T2, human recombinant 5-HT2C receptor (Homo sapiens, UniProt P28335); assay: Test Example 2: 5-HT2C receptor binding inhibition test ([3H]-Mesulergine; non-specific ligand Serotonin HCl)
T2 construct: expressed in transfected cells; host or cells: Jump-In HEK cells (membrane preparation)
T2 sequence (P28335 33-458): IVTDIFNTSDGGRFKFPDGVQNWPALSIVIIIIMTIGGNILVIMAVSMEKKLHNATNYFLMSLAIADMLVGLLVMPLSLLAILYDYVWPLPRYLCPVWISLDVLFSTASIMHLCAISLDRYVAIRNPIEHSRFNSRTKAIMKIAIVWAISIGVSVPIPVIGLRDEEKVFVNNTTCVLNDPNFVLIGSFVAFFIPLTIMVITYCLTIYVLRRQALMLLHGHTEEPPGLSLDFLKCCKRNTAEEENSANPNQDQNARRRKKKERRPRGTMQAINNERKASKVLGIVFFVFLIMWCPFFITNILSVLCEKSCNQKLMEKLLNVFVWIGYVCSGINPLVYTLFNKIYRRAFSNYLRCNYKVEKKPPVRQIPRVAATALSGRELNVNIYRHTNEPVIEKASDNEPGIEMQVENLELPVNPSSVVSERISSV
In short: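 Ki values come from dose-response curves of [3H]-mesulergine displacement from human 5-HT2C membranes after 2 h at 37°C, scored by scintillation counting of filter-bound radioactivity. Serotonin HCl (500 µmol/L) set non-specific binding; Kd per membrane lot was taken from Scatchard plots.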

[3] = molecular target: T3, human ether-a-go-go related gene (hERG) channel (Homo sapiens, UniProt Q12809); assay: Test Example 3: hERG test (FluxORII thallium flux, FLIPR, 8000 cells/well); assay type: cell-based; settings: CHO cells expressing hERG channel, compound reacted for 10 minutes, 100% inhibition = E-4031 10.3 µmol/L
T3 construct: expressed in transfected cells; host or cells: CHO cells
T3 sequence (Q12809 whole entry): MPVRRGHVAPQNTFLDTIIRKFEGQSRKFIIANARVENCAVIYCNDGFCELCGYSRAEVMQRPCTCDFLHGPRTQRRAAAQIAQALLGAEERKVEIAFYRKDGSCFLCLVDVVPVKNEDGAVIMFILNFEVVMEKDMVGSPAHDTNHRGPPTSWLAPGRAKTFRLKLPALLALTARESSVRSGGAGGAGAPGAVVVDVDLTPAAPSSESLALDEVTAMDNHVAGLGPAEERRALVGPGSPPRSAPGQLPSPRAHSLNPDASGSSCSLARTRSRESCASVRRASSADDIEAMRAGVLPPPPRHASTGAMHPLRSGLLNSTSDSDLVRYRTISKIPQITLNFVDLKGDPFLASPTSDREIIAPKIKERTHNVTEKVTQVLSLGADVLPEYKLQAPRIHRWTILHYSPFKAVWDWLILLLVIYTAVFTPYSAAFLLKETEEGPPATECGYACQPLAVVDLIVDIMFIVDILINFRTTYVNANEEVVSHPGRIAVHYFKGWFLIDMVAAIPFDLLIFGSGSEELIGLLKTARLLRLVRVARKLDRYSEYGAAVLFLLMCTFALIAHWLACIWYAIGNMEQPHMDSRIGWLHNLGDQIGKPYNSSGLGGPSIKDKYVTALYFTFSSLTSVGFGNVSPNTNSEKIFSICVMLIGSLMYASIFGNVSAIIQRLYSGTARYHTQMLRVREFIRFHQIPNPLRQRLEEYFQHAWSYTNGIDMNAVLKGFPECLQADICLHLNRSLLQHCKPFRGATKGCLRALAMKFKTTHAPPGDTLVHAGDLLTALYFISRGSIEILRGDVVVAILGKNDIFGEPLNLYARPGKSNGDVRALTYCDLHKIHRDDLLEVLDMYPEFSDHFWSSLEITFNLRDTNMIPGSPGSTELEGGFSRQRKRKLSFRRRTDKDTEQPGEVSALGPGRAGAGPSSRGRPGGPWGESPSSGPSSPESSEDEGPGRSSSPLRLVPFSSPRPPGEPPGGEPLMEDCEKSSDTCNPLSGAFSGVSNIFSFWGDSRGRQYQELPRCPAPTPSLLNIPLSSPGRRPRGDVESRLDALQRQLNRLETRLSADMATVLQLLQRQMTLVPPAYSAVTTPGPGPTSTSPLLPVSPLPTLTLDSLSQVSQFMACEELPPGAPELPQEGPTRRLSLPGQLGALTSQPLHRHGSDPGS
Description: (§1) For the purpose of evaluating risk of an electrocardiogram QT interval prolongation of the compound of the present invention, effects of the compound are studied by evaluating the activity of potassium channel using CHO cells expressing human ether-a-go-go related gene (hERG) channel.
(§2) Evaluation is performed using a FluxORII Green Potassium Ion Channel Assay kit (Invitrogen: Molecular Probes).
Cells (8000 cells/well/40 µL) are seeded in a 384 assay plate, and are incubated overnight (37°C, 5% CO2). […]
(§3) A cell plate is placed on a cell-based kinetic assay system FLIPR (Molecular Devices, LLC.), and the compound is added to the cells so as to have a desired concentration and reacted for 10 minutes. When a mixed solution of potassium and thallium as a stimulator is added thereto, the potassium channel is opened, and thallium that flowed into the cells binds to the fluorescent indicator, so that the intracellular fluorescence signal increases, and the potassium channel current is detected as a fluorescence signal. […] Then, the inhibition rate is calculated from the signal intensity at each concentration. IC50 is calculated from the inhibition rate at each concentration.

[4] = molecular target: T1, human recombinant 5-HT2A receptor; assay: Test Example 1-2: 5-HT2A receptor binding inhibition test ([3H]-Ketanserin; non-specific ligand Ketanserin)
In short: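 Ki values were derived from dose-response inhibition of [3H]-ketanserin binding; nonspecific binding was set with 500 µmol/L ketanserin, and Kd was set for each membrane lot from Scatchard saturation plots. Incubation lasted 1.5 h at room temperature (25 °C). Bound radioligand was harvested on Tris-HCl (pH 7.4)-presoaked filters and counted.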

[5] = molecular target: T2, human recombinant 5-HT2C receptor; assay: Test Example 2-2: 5-HT2C receptor binding inhibition test ([3H]-Mesulergine; non-specific ligand Ketanserin); settings: non-specific binding with 500 µmol/L Ketanserin, 37°C, 2 hours
In short: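 Membranes expressing the receptor were incubated with compound and [3H]-Mesulergine for 2 h at 37 °C, then filtered and counted by scintillation. Non-specific binding was defined with 500 µmol/L Ketanserin. Percent inhibition versus vehicle gave dose-response curves, from which Ki was derived using a Kd from Scatchard saturation analysis.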

[6] = molecular target: T3, human ether-a-go-go related gene (hERG) channel; assay: Test Example 3-2: hERG test (FluxORII thallium flux, FLIPR, 4000 cells/well); assay type: cell-based; settings: CHO cells expressing hERG channel, compound reacted for 10 minutes, 100% inhibition = E-4031 10.3 µmol/L
Description: as §1, §2
Cells (4000 cells/well/40 µL) are seeded in a 384 assay plate, and are incubated overnight (37°C, 5% CO2). After replacing the medium with a Wash buffer (lxHBSS, 20 mM HEPES) with a microplate washer, a fluorescent indicator is added to the medium and allowed to incubate (37°C, 5% CO2) for 1 hour for incorporation of the fluorescent indicator into cells.
as §3

[7] = [3H]-Ketanserin, non-specific binding with 500 µmol/L Serotonin HCl, room temperature (25°C), 1.5 hours, read-out: h 5-HT2A Ki
[8] = [3H]-Mesulergine, non-specific binding with 500 µmol/L Serotonin HCl, 37°C, 2 hours
[9] = [3H]-Ketanserin, non-specific binding with 500 µmol/L Ketanserin, room temperature (25°C), 1.5 hours, read-out: h 5-HT2A Ki
[10] = human serotonin 5-HT2C receptor binding activity

T1 sequence (P28223 whole entry): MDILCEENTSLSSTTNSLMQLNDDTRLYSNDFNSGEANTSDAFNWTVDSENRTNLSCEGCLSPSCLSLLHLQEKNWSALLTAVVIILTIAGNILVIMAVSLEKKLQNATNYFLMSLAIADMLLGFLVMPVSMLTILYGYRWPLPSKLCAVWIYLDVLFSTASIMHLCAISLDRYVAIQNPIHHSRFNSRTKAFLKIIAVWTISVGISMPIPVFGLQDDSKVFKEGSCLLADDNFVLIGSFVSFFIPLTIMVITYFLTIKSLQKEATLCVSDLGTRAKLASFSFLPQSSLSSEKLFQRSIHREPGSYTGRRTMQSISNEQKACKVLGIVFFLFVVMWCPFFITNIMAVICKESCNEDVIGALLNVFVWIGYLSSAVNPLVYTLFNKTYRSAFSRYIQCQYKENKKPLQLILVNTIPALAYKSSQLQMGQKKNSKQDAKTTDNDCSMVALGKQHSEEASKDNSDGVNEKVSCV

Row | SMILES | Ki [1, 7] | Ki [2, 8] | Ki [4, 9] | Ki [2, 10] | IC50 [6] | further results
1 | Cn1ncc(Br)c1-c1cc(Nc2ccc(C(F)(F)F)cc2)ccc1OCCO [Compound I-001] | 0.447 nM | 1.44 nM | – | – | – | –
2 | Cn1ncc(Br)c1-c1cc(Nc2ccc(F)cc2)ccc1OCCO [Compound I-003] | 0.597 nM | 11.4 nM | – | – | – | –
3 | Cn1ncc(Br)c1-c1cc(Nc2ccc(C(F)(F)F)cn2)ccc1OCCO [Compound I-004] | 0.42 nM | 0.387 nM | – | – | – | –
4 | Cn1ncc(Br)c1-c1cc(Nc2ncc(C(F)(F)F)s2)ccc1OCCO [Compound I-005] | 0.301 nM | 1.08 nM | – | – | – | –
5 | Cn1ncc(Br)c1-c1cc(Nc2ncc(C(F)(F)F)cc2F)ncc1OCCO [Compound I-062] | – | – | – | – | – | IC50 [3]: > 52000 nM; Ki [4]: 0.286 nM; Ki [5]: 0.366 nM
6 | Cc1cnn(C)c1-c1cc(Nc2ncc(C(F)(F)F)cc2F)ncc1OCCO [Compound I-063] | – | – | – | – | – | IC50 [3]: > 52000 nM; Ki [4]: 0.337 nM; Ki [5]: 2.09 nM
7 | Cn1ncc(Br)c1-c1cc(Nc2ccc(C(F)(F)F)nc2)ccc1OCCO [I-002] | – | 19.2 nM | – | – | – | Ki [1]: 0.375 nM

The next lines start with results.

Row | Ki [1, 7] | Ki [2, 8] | Ki [4, 9] | Ki [2, 10] | SMILES | IC50 [6] | further results
8 | 0.548 nM | 14.9 nM | – | – | Cn1ncc(Br)c1-c1cc(Nc2ccc(C(F)(F)F)nn2)ccc1OCCO [Compound I-007] | – | –
9 | 0.337 nM | 8.7 nM | – | – | Cn1nccc1-c1cc(Nc2ncc(C(F)(F)F)cc2F)ccc1OCCO [Compound I-009] | – | –
10 | – | – | 0.316 nM | 0.748 nM | Cn1ncc(Br)c1-c1cc(Nc2ncc(C(F)(F)F)cc2F)ncc1OC(F)(F)CO [Compound I-228] | 50600 nM | –
11 | – | – | 0.465 nM | 0.786 nM | Cc1nc(C)c(-c2nc(Nc3ccc(C(F)(F)F)cc3)c(F)cc2OCCO)c(C)n1 [Compound I-267] | > 52000 nM | –
12 | – | – | 0.4 nM | 3.92 nM | Cc1nc(C)c(-c2cc(Nc3ccc(-c4ccc(F)cc4)cn3)cnc2O[C@H](C)CO)c(C)n1 [Compound I-271] | > 52000 nM | –
13 | – | – | 0.952 nM | 4.57 nM | CNC(=O)c1ccc(F)c(-c2cc(Nc3ncc(C(F)(F)F)cc3F)ncc2OCCO)c1F [Compound I-359] | > 52000 nM | –
